Reference: patent publication US12702676B2, “Fosfomycin dosing regimens” (priority 2017, dated 2026)
≈ marks a conversion by molar mass, not a printed value. Like-named read-outs stand apart in the source and are kept apart here.

Experiments:
[1] = test system: Enterobacteriaceae; experiment: Non-clinical total-drug % T>RIC targets for efficacy
Excerpt: Emphasis was placed on the assessment of PK-PD target attainment results for AUC:MIC ratio and % T>RIC targets associated with net bacterial stasis.

[2] = Population PK analysis of ZTI-01, pooled Phase 1 healthy subjects and Phase 2/3 cUTI/AP patients; format: in vivo, human; conditions: for Baseline CLcr50 / Hill coefficient: CL model
Excerpt: Methods: Two clinical studies have been conducted as part of the development of ZTI-01: a Phase 1 study in healthy subjects (ZTI-01-NIH13-0064) and a Phase 2/3 study in hospitalized patients with complicated urinary tract infections (ZTI-01-200). A PPK model, originally developed using Phase 1 data and an empirical relationship between FOS clearance (CLt) and creatinine clearance (CLcr) [Microbe 2017 Abstr. P1134], was refined using pooled data from healthy subjects and patients with cUTI, including acute pyelonephritis.
The PPK model was developed in NONMEM 7.2. In the Phase 1 study, 28 healthy subjects who received ZTI-01 as single (1 and 8 g infused over 1 hour) IV doses in crossover fashion provided plasma and urine samples for FOS concentration determination over 24 hours. Patients from the Phase 2/3 study (ZEUS, NCT02753946) received ZTI-01 at 6 g every 8 hours, with dosage adjustment for patients with renal impairment (adjusted for CLcr≤50 mL/min). Blood samples for PK (n=5 per patient) were collected on Day 1 and on either Days 3, 4, or 5. Model development involved refinement of the previous CLt:CLcr relationship using the pooled data and a full covariate analysis to identify other patient descriptors associated with the interindividual variability (IIV) in FOS PK. Model qualification included standard goodness-of-fit metrics and visual predictive check plots.
For the PPK model refinement, previous structural population PK model was fit to the pooled Phase 1 and 2/3 data. Covariate analyses were conducted using forward selection and backward elimination. The final model was qualified using visual predictive checks and non-parametric bootstrap procedures. Individual, post-hoc fosfomycin exposures were calculated for each patient using predicted plasma fosfomycin concentration-time data for the first 48 hours of therapy.

[3] = Pharmacokinetics in specific populations (hemodialysis, hepatic, demographics); format: in vivo, human
[4] = test system: Acinetobacter baumannii-calcoaceticus complex; experiment: Case treated with the dosing regimen of the invention; format: in vivo; conditions: one case
Excerpt: In addition to the above list, it was also observed that the dosing regimen of the present invention provided beneficial results for two uncommon and rarely treated strains. In one case, the dosing regimen of the present invention was used to administer appropriate dosages of fosfomycin, resulting in the eradication of the often resistant, Gram negative Acinetobacter baumannii-calcoaceticus complex.

[5] = test system: Raoultella ornithinolytica; experiment: Case treated with the dosing scheme of the invention; format: in vivo; conditions: one case
[6] = test system: Enterobacteriaceae; conditions: cited from earlier work; for Total-drug AUC:MIC ratio target: Enterobacteriaceae; for Median total-drug AUC:MIC ratio target: neutropenic murine-thigh infection model (Lepak et al.)
[7] = test system: Enterobacteriaceae isolates; conditions: 1,021 Enterobacteriaceae isolates collected from US medical centers; cited from earlier work
[8] = test system: acute pyelonephritis pathogens; conditions: Ode et al. study; dosing regimen 8 g bid; cited from earlier work
[9] = 1-log10 CFU reduction from baseline
[10] = final population PK model estimate

## C[C@@H]1O[C@@H]1P(=O)(O)O [fosfomycin]
[1]; [9]
  Total-drug % T > RIC target: 20.9%
[1]; 2-log10 CFU reduction from baseline
  Total-drug % T > RIC target: 32.8%
[1]; Net bacterial stasis
  Total-drug % T > RIC target: 11.9%
[2]; bootstrap mean (N = 200)
  Baseline CLcr50: 66.3 mL/min/1.73 m^2
  Hill coefficient: 2.6
  CLd1 Coefficient: 4.36 L/h
  CLd1 Proportional increase for AP and cUTI patients: 1.28
  CLd2 Coefficient: 0.351 L/h
  CLe maximum: 9.02 L/h
  Covariance between CL and Vc: 0.0707
  Covariance between CL and Vp1: 0.134
  Covariance between CLd1 and Vp1: 0.173
  Plasma Residual variability (σ^2) CCV component: 0.0196
  Urine Residual variability (σ^2) CCV component: 0.0793
  Vc Coefficient: 17.7 L
  Vc-BSA power: 1.72
  Vp1-BSA power: 2.73
  Vp1 Coefficient: 6.11 L
  Vp1 Proportional increase for AP and cUTI patients: 0.721
  Vp2 Coefficient: 1.74 L
  ω^2 for Vc: 0.174
  ω^2 for Vp1: 0.516
  ω^2 tor CLd1: 0.203
[2]; bootstrap median (N = 200)
  Baseline CLcr50: 65.6 mL/min/1.73 m^2
  Hill coefficient: 2.59
  CLd1 Coefficient: 4.2 L/h
  CLd1 Proportional increase for AP and cUTI patients: 1.15
  CLd2 Coefficient: 0.346 L/h
  CLe maximum: 8.87 L/h
  Covariance between CL and Vc: 0.0704
  Covariance between CL and Vp1: 0.131
  Covariance between CLd1 and Vp1: 0.166
  Plasma Residual variability (σ^2) CCV component: 0.0194
  Urine Residual variability (σ^2) CCV component: 0.079
  Vc Coefficient: 17.7 L
  Vc-BSA power: 1.7
  Vp1-BSA power: 2.73
  Vp1 Coefficient: 6.03 L
  Vp1 Proportional increase for AP and cUTI patients: 0.706
  Vp2 Coefficient: 1.72 L
  ω^2 for Vc: 0.172
  ω^2 for Vp1: 0.508
  ω^2 tor CLd1: 0.199
[2]; [10]
  Baseline CLcr50: 65 mL/min/1.73 m^2
  Hill coefficient: 2.56
  CLd1 Coefficient: 4.15 L/h
  CLd1 Proportional increase for AP and cUTI patients: 1.24
  CLd2 Coefficient: 0.349 L/h
  CLe maximum: 8.87 L/h
  Covariance between CL and Vc: 0.07213
  Covariance between CL and Vp1: 0.1296
  Covariance between CLd1 and Vp1: 0.1853
  Plasma Residual variability (σ^2) CCV component: 0.0195
  Urine Residual variability (σ^2) CCV component: 0.0795
  Vc Coefficient: 17.6 L
  Vc-BSA power: 1.76
  Vp1-BSA power: 2.72
  Vp1 Coefficient: 5.99 L
  Vp1 Proportional increase for AP and cUTI patients: 0.729
  Vp2 Coefficient: 1.73 L
  ω^2 for Vc: 0.175
  ω^2 for Vp1: 0.502
  ω^2 tor CLd1: 0.215
[2]; geometric mean, infected Phase 2/3 patients (n = 214), ZTI-01-200, population PK model fit
  Cmin: 30.0 µg/mL
[2]; human, in vivo, 6 g, geometric mean, infected Phase 2/3 patients (n = 214), ZTI-01-200, population PK model fit
  Cmax: 364 µg/mL
[2]; human, in vivo, 6 g, geometric mean, infected Phase 2/3 patients (n = 214), ZTI-01-200, population PK model fit, read-out: CL (converted)
  clearance: 99.7 mL/min
[2]; human, in vivo, 6 g, geometric mean, infected Phase 2/3 patients (n = 214), ZTI-01-200, population PK model fit, read-out: VSS
  Vd: 30.9 L
[2]; human, in vivo, 6 g, geometric mean, infected Phase 2/3 patients (n = 214), ZTI-01-200, population PK model fit, read-out: t1/2, α (converted)
  half-life: 0.402 h
[2]; human, in vivo, 6 g, geometric mean, infected Phase 2/3 patients (n = 214), ZTI-01-200, population PK model fit, read-out: t1/2, β (converted)
  half-life: 2.67 h
[2]; human, in vivo, 6 g, geometric mean, infected Phase 2/3 patients (n = 214), ZTI-01-200, population PK model fit, read-out: t1/2, γ (converted)
  half-life: 4.99 h
[2]; human, in vivo, 6 g, geometric mean, infected Phase 2/3 patients (n = 214), ZTI-01-200, doses by baseline renal function, population PK model fit, read-out: AUC0-24
  AUC(0-t): 2490 µg·h/mL
[2]; human, in vivo, bootstrap mean (N = 200), read-out: Non-renal CL (converted)
  clearance: 27 mL/min
[2]; human, in vivo, bootstrap median (N = 200), read-out: Non-renal CL (converted)
  clearance: 27.2 mL/min
[2]; human, in vivo, final population PK model estimate, read-out: Non-renal CL (converted)
  clearance: 26.8 mL/min
[3]; administered prior to hemodialysis in patients on periodic or chronic hemodialysis
  fosfomycin dose removed by hemodialysis: 61-79%
[3]; age 18 to 89 years, adjusted for renal function
  differences in pharmacokinetics based on sex, body weight/body surface area, race/ethnicity or age: No clinically significant differences
[3]; in vivo
  metabolism through the liver: not metabolized through the liver
[4]
  outcome against Acinetobacter baumannii-calcoaceticus complex: eradication
[5]
  outcome against Raoultella ornithinolytica: successfully eradicated
[6]; [9]
  Total-drug AUC:MIC ratio target: 41.6
[6]; 1 log10 CFU reduction from baseline
  Median total-drug AUC:MIC ratio target: 41.6
[6]; Net bacterial stasis
  Total-drug AUC:MIC ratio target: 19.1
  Median total-drug AUC:MIC ratio target: 19.1
[7]
  MIC50: 4 mg/L (≈ 29 µM)
  MIC90: 16 mg/L (≈ 116 µM)
[8]
  effective (patients with AP): 44%
